In ChEMBL document CHEMBL4152303, “Structure-activity relationships of imidazothiazinones and analogs as antagonists of the cannabinoid-activated orphan G protein-coupled receptor GPR18” (Eur J Med Chem, 2018) one finds EC50 data, which are given here for 1 molecule.

Test [1] addresses T1, N-arachidonyl glycine receptor (Homo sapiens, UniProt Q14330).
T1 sequence (Q14330 whole entry): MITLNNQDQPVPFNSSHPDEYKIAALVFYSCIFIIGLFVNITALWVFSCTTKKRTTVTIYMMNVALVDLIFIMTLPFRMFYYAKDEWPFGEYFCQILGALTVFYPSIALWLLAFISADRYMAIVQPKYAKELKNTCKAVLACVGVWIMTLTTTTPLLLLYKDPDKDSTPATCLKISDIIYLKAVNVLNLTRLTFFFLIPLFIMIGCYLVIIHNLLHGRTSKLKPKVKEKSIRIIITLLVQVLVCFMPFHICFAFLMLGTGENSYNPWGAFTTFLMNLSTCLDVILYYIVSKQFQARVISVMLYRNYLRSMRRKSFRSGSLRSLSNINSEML
The test can be described thus: Agonist activity at recombinant full length human GPR18 expressed in CHO cells assessed as forskolin-stimulated cAMP accumulation after 10 mins by enzyme immunoassay. The class given is functional, cell-based. Background: cAMP levels reflect the balance of adenylyl cyclase and phosphodiesterase activity.

Test [2] has as its target T1, N-arachidonyl glycine receptor. The test can be described thus: Agonist activity at recombinant human GPR18 expressed in HEK293 cells assessed as induction of p44/42 MAPK phosphorylation after 5 mins by Western blot analysis. The class given is functional, cell-based. On the technique in general: A western blot detects proteins with antibodies after separation by electrophoresis.

Each structure is given as a SMILES string.

As for `CCCCC/C=C\C/C=C\C/C=C\C/C=C\CCCC(=O)NCC(=O)O` [ARACHIDONOYL GLYCINE], the EC50 (usually the concentration at which the effect is half-maximal) in test [1] came to 20 nM; in test [2] it was 44 nM.
